Data from ChEMBL document CHEMBL4507276 (2021).

Columns and labels:
[1] = test system: Epidermal growth factor receptor (Homo sapiens), P00533 [L861Q]; settings: Compound concentration 1000.0 nM
[2] = biological target: Platelet-derived growth factor receptor alpha (Homo sapiens) (UniProt P16234); settings: Compound concentration 1000.0 nM
[3] = biological target: T1, Mitogen-activated protein kinase kinase kinase 2 (Homo sapiens) (UniProt Q9Y2U5); settings: Compound concentration 1000.0 nM
T1 sequence (whole entry): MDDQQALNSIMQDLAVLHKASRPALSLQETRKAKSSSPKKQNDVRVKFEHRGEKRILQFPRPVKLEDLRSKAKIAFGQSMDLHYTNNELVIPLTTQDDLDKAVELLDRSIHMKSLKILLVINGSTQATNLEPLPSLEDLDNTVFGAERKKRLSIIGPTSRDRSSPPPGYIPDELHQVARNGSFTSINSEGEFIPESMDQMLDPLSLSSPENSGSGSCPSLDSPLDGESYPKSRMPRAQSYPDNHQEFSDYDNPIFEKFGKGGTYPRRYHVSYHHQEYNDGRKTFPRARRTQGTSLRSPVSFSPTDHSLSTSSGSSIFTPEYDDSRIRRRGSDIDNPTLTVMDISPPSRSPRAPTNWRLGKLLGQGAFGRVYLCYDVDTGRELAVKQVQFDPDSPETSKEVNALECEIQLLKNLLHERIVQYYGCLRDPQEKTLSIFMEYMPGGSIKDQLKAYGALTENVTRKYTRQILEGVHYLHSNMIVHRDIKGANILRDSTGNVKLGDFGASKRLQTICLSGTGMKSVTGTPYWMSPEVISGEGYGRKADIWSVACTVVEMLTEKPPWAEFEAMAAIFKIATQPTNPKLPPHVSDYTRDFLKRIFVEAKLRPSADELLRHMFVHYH

[4] = biological target: Ephrin type-A receptor 5 (Homo sapiens) (UniProt P54756); settings: Compound concentration 1000.0 nM
[5] = biological target: Ribosomal protein S6 kinase alpha-6 (Homo sapiens) (UniProt Q9UK32); settings: Compound concentration 1000.0 nM
[6] = biological target: Fibroblast growth factor receptor 2 (Homo sapiens) (UniProt P21802); settings: Compound concentration 1000.0 nM
[7] = biological target: T2, Tyrosine-protein kinase receptor TYRO3 (Homo sapiens) (UniProt Q06418); settings: Compound concentration 1000.0 nM
T2 sequence (whole entry): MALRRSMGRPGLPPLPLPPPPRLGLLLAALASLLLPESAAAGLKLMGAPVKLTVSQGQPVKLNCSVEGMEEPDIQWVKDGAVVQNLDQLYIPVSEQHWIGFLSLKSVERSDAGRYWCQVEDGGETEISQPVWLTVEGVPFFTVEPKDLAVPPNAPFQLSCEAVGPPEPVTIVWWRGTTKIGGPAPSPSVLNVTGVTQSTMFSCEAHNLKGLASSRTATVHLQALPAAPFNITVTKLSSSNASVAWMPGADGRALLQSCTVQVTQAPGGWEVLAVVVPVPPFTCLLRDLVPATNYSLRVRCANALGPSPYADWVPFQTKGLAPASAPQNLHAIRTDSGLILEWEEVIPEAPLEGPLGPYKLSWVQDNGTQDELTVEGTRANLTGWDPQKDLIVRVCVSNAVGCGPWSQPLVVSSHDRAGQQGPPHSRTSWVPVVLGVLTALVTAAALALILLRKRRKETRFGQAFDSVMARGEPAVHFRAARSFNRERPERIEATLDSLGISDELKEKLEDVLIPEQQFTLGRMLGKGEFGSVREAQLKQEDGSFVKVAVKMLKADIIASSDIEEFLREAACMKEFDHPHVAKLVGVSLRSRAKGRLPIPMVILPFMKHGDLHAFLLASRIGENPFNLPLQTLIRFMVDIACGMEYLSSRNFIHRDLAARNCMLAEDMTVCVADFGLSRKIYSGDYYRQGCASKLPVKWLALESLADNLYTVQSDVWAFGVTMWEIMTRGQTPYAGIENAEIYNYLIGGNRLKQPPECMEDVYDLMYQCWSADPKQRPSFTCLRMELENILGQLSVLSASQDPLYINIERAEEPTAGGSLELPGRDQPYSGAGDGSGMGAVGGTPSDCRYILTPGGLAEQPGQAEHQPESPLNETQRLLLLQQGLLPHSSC

[8] = test system: Fibroblast growth factor receptor 3 (Homo sapiens), P22607 [G697C]; settings: Compound concentration 1000.0 nM
Fibroblast growth factor receptor 3 (Homo sapiens), P22607 [G697C], sequence (P22607 whole entry G697C): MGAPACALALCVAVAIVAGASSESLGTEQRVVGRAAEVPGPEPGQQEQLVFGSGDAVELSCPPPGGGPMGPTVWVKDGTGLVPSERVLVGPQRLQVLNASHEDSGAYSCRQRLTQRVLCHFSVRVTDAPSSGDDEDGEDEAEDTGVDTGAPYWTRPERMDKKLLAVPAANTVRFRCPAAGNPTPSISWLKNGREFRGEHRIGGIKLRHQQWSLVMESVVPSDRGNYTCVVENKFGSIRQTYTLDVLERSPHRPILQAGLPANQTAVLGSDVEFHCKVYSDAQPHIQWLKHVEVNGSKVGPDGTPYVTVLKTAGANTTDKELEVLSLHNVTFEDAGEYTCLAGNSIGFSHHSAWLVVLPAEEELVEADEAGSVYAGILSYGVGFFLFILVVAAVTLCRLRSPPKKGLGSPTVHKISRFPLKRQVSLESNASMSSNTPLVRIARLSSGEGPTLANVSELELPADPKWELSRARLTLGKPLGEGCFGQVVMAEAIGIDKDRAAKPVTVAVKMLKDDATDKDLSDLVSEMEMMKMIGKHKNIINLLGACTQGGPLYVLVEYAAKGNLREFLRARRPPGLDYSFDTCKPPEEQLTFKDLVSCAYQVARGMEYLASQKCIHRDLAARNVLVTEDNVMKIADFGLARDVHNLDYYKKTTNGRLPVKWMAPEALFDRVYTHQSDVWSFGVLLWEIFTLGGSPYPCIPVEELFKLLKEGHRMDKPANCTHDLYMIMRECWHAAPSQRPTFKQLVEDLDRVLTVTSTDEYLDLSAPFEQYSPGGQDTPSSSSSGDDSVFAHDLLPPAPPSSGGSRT

[9] = biological target: Serine/threonine-protein kinase RIO1 (Homo sapiens) (UniProt Q9BRS2); settings: Compound concentration 1000.0 nM
[10] = biological target: Serine/threonine-protein kinase ULK2 (Homo sapiens) (UniProt Q8IYT8); settings: Compound concentration 1000.0 nM
[11] = biological target: Histamine H3 receptor (Homo sapiens) (UniProt Q9Y5N1); settings: Compound concentration 10.0 uM
[12] = biological target: Serine/threonine-protein kinase D1 (Homo sapiens) (UniProt Q15139); settings: Compound concentration 1000.0 nM
[13] = biological target: Serine/threonine-protein kinase 32B (Homo sapiens) (UniProt Q9NY57); settings: Compound concentration 1000.0 nM
[14] = biological target: Cyclin-dependent kinase-like 5 (Homo sapiens) (UniProt O76039); settings: Compound concentration 1000.0 nM
Cyclin-dependent kinase-like 5 (Homo sapiens), sequence (O76039 whole entry): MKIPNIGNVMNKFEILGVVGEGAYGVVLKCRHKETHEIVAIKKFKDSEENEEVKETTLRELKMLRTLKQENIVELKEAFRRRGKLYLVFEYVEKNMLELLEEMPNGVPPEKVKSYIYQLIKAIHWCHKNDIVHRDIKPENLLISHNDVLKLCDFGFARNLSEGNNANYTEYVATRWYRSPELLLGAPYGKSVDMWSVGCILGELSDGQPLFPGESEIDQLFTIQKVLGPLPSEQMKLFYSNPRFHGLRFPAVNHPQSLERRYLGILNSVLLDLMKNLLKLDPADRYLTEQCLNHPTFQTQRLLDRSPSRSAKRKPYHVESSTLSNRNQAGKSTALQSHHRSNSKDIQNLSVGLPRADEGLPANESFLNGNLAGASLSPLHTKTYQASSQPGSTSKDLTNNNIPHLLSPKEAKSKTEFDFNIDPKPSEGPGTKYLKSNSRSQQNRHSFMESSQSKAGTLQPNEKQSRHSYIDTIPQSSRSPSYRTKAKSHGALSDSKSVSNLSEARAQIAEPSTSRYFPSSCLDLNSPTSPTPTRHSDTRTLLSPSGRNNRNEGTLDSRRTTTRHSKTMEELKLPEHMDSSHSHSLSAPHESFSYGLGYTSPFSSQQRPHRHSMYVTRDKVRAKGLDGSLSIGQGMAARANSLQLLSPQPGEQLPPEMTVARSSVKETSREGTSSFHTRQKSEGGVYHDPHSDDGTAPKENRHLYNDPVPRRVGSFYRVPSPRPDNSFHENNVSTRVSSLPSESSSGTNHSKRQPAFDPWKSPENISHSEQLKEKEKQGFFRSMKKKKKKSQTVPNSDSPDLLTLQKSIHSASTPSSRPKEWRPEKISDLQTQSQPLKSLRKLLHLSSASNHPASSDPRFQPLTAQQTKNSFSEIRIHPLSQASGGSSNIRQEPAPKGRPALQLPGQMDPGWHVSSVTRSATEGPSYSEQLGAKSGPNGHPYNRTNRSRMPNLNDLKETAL

[15] = biological target: Proto-oncogene tyrosine-protein kinase receptor Ret (Homo sapiens) (UniProt P07949); settings: Compound concentration 1000.0 nM
Proto-oncogene tyrosine-protein kinase receptor Ret (Homo sapiens), sequence (P07949 whole entry): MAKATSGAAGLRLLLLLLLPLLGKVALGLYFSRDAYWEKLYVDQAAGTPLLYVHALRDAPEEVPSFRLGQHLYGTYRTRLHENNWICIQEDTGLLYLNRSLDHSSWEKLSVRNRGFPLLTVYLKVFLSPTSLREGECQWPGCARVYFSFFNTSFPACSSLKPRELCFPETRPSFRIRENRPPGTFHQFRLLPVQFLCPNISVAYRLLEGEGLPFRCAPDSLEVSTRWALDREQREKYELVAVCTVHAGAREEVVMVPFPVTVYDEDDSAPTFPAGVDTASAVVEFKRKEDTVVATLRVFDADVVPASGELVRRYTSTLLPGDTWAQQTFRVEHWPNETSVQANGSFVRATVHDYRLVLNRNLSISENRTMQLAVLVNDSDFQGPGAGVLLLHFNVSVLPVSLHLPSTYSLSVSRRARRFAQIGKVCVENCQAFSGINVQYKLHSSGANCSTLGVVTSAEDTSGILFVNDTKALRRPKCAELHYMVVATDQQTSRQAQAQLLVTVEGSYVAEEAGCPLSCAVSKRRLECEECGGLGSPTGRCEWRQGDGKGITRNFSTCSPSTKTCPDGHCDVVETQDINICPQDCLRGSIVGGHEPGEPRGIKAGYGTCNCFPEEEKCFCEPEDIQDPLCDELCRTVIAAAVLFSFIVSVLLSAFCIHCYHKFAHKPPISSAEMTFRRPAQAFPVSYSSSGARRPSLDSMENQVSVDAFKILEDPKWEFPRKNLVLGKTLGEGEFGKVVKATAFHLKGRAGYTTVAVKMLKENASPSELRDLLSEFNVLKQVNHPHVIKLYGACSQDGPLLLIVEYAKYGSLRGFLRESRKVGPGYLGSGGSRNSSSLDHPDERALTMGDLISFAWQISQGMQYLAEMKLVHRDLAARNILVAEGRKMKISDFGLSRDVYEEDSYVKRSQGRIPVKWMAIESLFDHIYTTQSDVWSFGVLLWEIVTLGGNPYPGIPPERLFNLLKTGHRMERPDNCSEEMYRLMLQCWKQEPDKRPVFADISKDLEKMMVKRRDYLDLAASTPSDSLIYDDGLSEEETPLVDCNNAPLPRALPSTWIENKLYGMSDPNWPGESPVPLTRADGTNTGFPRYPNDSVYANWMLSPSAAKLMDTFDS

[16] = test system: Serine/threonine-protein kinase B-raf (Homo sapiens), P15056 [V600E]; settings: Compound concentration 1000.0 nM
[17] = biological target: Histamine H4 receptor (Homo sapiens) (UniProt Q9H3N8); settings: Compound concentration 10.0 uM
Histamine H4 receptor (Homo sapiens), sequence (Q9H3N8 whole entry): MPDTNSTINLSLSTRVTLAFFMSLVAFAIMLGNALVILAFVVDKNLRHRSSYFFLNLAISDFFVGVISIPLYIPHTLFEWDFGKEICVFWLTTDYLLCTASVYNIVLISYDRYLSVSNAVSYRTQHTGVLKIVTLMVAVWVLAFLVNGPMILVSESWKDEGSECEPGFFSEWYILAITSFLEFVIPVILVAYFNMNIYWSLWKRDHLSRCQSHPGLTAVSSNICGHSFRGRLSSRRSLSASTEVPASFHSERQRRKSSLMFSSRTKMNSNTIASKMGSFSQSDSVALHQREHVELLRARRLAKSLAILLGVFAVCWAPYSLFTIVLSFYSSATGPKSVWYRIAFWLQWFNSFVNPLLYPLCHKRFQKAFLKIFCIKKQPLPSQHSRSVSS

[18] = biological target: Ephrin type-A receptor 4 (Homo sapiens) (UniProt P54764); settings: Compound concentration 1000.0 nM
[19] = biological target: Ribosomal protein S6 kinase alpha-4 (Homo sapiens) (UniProt O75676); settings: Compound concentration 1000.0 nM
[20] = biological target: Phosphatidylinositol 4,5-bisphosphate 3-kinase catalytic subunit beta isoform (Homo sapiens) (UniProt P42338); settings: Compound concentration 1000.0 nM
[21] = biological target: Cyclin-dependent kinase 8 (Homo sapiens) (UniProt P49336); settings: Compound concentration 1000.0 nM
[22] = biological target: 5-hydroxytryptamine receptor 1D (Homo sapiens) (UniProt P28221); settings: Compound concentration 10.0 uM
[23] = biological target: Serine/threonine-protein kinase Nek4 (Homo sapiens) (UniProt P51957); settings: Compound concentration 1000.0 nM
[24] = test system: Epidermal growth factor receptor (Homo sapiens), P00533 [UNDEFINED MUTATION]; settings: Compound concentration 1000.0 nM
[25] = biological target: Interleukin-1 receptor-associated kinase 1 (Homo sapiens) (UniProt P51617); settings: Compound concentration 1000.0 nM
Interleukin-1 receptor-associated kinase 1 (Homo sapiens), sequence (P51617 whole entry, looked up): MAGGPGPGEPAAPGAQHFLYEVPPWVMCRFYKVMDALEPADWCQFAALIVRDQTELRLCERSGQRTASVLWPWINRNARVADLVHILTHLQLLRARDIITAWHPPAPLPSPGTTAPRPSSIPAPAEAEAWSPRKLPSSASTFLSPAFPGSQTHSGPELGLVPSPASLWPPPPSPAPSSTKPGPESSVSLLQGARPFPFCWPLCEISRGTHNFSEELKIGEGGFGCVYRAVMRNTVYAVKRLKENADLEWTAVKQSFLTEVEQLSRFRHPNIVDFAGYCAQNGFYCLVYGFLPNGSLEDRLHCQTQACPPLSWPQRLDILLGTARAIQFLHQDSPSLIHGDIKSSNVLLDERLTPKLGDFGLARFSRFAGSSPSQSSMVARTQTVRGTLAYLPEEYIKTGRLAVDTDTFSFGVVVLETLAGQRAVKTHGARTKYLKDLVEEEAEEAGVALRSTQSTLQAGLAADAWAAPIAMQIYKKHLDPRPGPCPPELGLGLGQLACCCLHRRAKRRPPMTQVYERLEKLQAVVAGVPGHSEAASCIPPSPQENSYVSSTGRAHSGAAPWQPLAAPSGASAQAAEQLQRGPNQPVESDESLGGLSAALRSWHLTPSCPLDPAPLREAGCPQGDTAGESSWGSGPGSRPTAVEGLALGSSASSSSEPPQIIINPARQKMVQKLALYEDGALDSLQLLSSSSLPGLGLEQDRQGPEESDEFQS

Platelet-derived growth factor receptor alpha (Homo sapiens), sequence (P16234 whole entry): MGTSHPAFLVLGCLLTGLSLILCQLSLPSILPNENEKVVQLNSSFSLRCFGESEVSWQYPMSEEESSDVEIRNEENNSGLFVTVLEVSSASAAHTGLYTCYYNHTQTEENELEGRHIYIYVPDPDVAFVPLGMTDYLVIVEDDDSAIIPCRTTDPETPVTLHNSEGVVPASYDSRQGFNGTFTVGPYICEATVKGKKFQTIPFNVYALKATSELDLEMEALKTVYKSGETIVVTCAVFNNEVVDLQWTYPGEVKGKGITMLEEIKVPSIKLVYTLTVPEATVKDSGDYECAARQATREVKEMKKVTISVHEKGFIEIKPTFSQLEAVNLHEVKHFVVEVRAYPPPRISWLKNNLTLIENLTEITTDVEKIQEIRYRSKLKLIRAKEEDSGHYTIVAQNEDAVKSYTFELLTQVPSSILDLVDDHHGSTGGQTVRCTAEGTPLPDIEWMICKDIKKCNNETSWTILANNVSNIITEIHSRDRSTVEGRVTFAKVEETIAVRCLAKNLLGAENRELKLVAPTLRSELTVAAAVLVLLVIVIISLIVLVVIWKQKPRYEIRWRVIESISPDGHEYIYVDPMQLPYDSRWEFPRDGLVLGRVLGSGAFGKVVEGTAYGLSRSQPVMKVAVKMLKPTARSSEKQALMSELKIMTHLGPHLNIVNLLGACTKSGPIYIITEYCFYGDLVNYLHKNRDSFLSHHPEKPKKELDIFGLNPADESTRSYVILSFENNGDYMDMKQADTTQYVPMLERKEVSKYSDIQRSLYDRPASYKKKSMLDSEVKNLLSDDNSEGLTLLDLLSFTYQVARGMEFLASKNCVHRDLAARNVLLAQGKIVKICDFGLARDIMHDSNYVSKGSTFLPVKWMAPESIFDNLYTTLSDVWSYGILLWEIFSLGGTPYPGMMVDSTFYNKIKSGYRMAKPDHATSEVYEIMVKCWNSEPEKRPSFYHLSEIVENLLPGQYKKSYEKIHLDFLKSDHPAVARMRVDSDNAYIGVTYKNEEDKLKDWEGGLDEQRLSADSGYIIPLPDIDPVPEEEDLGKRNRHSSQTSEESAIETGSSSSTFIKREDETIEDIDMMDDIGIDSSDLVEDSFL

Compound: CN(C)C(=O)Cn1cc(-c2nc(C3(c4ccc(-c5cnc(N)nc5)cc4)CC3)no2)cn1 [BI 0153]
- residual activity [1]: 100%
- residual activity [2]: 83%
- residual activity [3]: 93%
- residual activity [4]: 41%
- residual activity [5]: 100%
- residual activity [6]: 100%
- residual activity [7]: 83%
- residual activity [8]: 100%
- residual activity [9]: 100%
- residual activity [10]: 78%
- inhibition [11]: 3.45%
- residual activity [12]: 100%
- residual activity [13]: 100%
- residual activity [14]: 82%
- residual activity [15]: 94%
- residual activity [16]: 87%
- inhibition [17]: 36.6%
- residual activity [18]: 100%
- residual activity [19]: 91%
- residual activity [20]: 96%
- residual activity [21]: 100%
- inhibition [22]: -3.06%
- residual activity [23]: 95%
- residual activity [24]: 67%
- residual activity [25]: 77%

Compound: CN(C)C(=O)Cn1cc(-c2nc([C@@](C)(c3ccc(-c4cnc(N)nc4)cc3)C3CC3)no2)cn1 [BI 665915]
- residual activity [1]: 100%
- residual activity [2]: 100%
- residual activity [3]: 94%
- residual activity [4]: 100%
- residual activity [5]: 100%
- residual activity [6]: 85%
- residual activity [7]: 100%
- residual activity [8]: 89%
- residual activity [9]: 100%
- residual activity [10]: 100%
- inhibition [11]: 11%
- residual activity [12]: 100%
- residual activity [13]: 100%
- residual activity [14]: 89%
- residual activity [15]: 94%
- residual activity [16]: 89%
- inhibition [17]: 55.2%
- residual activity [18]: 100%
- residual activity [19]: 100%
- residual activity [20]: 100%
- residual activity [21]: 89%
- inhibition [22]: -5.95%
- residual activity [23]: 88%
- residual activity [24]: 100%
- residual activity [25]: 85%
